Measurements reported in patent US11274083B2, “Substituted thiophenyl uracils, salts thereof and the use thereof as herbicidal agents” (Syngenta Crop Protection AG, priority 2017, dated 2022).

Key:
Assay type in all cases: in vivo
Zea mays = test: Crop compatibility post-emergence, greenhouse pot test
Summary of the method: (§1)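 Visual % damage versus untreated plants, read about 3 weeks after treatment (100% = plants died, 0% = as control). Crops were sown in sandy loam pots in a greenhouse and sprayed at one-leaf stage with WP/EC compound in water with 0.5% additive, 600 L/ha.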

Oryza sativa = test: as above
Summary of the method: as §1

Triticum aestivum = test: as above; settings: application rate 20 g/ha
Summary of the method: as §1

Matricaria inodora [1] = test: Herbicidal action pre-emergence, greenhouse pot test
Source text: Seeds of mono- and dicotyledonous weeds and crop plants were laid out in plastic or organic plant pots and covered with soil. The compounds of the invention formulated in the form of wettable powders (WP) or as emulsion concentrates (EC) were then applied to the surface of the covering soil as an aqueous suspension or emulsion with addition of 0.5% additive at a water application rate equivalent to 600 L/ha. After the treatment, the pots were placed in a greenhouse and kept under good growth conditions for the test plants. After about 3 weeks, the efficacy of the preparations was scored visually as a percentage by comparison with untreated controls. For example, 100% efficacy=plants have died. 0% efficacy=like control plants. Tables B1 to B17 below show the efficacies of selected compounds of the general formula (I) […] aforementioned trial method.

Echinochloa crus-galli [2] = test: Herbicidal action post-emergence, greenhouse pot test; settings: application rate 80 g/ha
Summary of the method: (§2)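 Sandy loam pots, greenhouse; one-leaf stage (2–3 wk post-sowing); WP/EC spray as aqueous suspension/emulsion + 0.5% additive, 600 L/ha; rate ≤80 g/ha; visual % efficacy vs untreated at ~3 wk.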

Pharbitis purpurea [3] = test: as above
Summary of the method: as §2

Setaria viridis [4] = test: as above
Summary of the method: as §2

Alopecurus myosuroides [5] = test: as above; settings: application rate 80 g/ha, scored visually after about 3 weeks vs untreated controls
Summary of the method: as §2

Amaranthus retroflexus [6] = test: as above; settings: application rate 80 g/ha
Summary of the method: as §2

Polygonum convolvulus [7] = test: as above
Summary of the method: as §2

Matricaria inodora [8] = test: as above
Summary of the method: as §2

Veronica persica [9] = test: as above; settings: application rate 80 g/ha
Summary of the method: as §2

Stellaria media [10] = test: as above; settings: application rate 80 g/ha
Summary of the method: as §2

Abutilon theophrasti [11] = test: as above; settings: application rate 80 g/ha
Summary of the method: as §2

Echinochloa crus-galli [12] = test: Herbicidal action pre-emergence, greenhouse pot test; settings: application rate 320 g/ha
Source text: (§3) Seeds of mono- and dicotyledonous weeds and crop plants were laid out in plastic or organic plant pots and covered with soil. The compounds of the invention formulated in the form of wettable powders (WP) or as emulsion concentrates (EC) were then applied to the surface of the covering soil as an aqueous suspension or emulsion with addition of 0.5% additive at a water application rate equivalent to 600 L/ha. After the treatment, the pots were placed in a greenhouse and kept under good growth conditions for the test plants. After about 3 weeks, the efficacy of the preparations was scored visually as a percentage by comparison with untreated controls. For example, 100% efficacy=plants have died. 0% efficacy=like control plants. Tables B1 to B17 below show the efficacies of selected compounds of the general formula (I) according to tables I.1 to I.50 on various harmful plants and an application rate corresponding to 320 g/ha or lower that were obtained by the aforementioned trial method.

Pharbitis purpurea [13] = test: as above
Source text: as §3

Hordeum murinum = test: as above; settings: application rate 320 g/ha
Source text: as §3

Setaria viridis [14] = test: as above
Source text: as §3

Alopecurus myosuroides [15] = test: as above; settings: application rate 320 g/ha
Source text: as §3

Avena fatua = test: as above; settings: application rate 320 g/ha
Source text: as §3

Lolium rigidum [16] = test: as above
Source text: as §3

Amaranthus retroflexus [17] = test: as above; settings: application rate 80 g/ha
Source text: as §3

Polygonum convolvulus [18] = test: as above
Source text: as §3

Veronica persica [19] = test: as above
Source text: as §3

Viola tricolor [20] = test: as above
Source text: as §3

Stellaria media [21] = test: as above
Source text: as §3

Abutilon theophrasti [22] = test: as above
Source text: as §3

Viola tricolor [23] = test: Herbicidal action post-emergence, greenhouse pot test; settings: application rate 20 g/ha
Summary of the method: as §2

Cyperus esculentus = test: Herbicidal action pre-emergence, greenhouse pot test; settings: application rate 320 g/ha
Source text: as §3

Lolium rigidum [24] = test: Herbicidal action post-emergence, greenhouse pot test; settings: application rate 80 g/ha
Summary of the method: as §2

SMILES: CC(Sc1cc(-n2c(=O)cc(C(F)(F)F)n(C)c2=O)c(F)cc1Cl)C(=O)OC1CCOC1=O (stereo not shown) [I.1-141]
- Zea mays (Efficacy in %) (Zea mays; application rate 5 g/ha): 10%
- Oryza sativa (Efficacy in %) (Oryza sativa; application rate 20 g/ha): 0%
- Triticum aestivum (Efficacy in %) (Triticum aestivum): 20%
- Matricaria inodora (Efficacy in %) (Matricaria inodora [1]; application rate 320 g/ha): 100%
- Echinochloa crus-galli (Efficacy in %) (Echinochloa crus-galli [2]): 100%
- Pharbitis purpurea (Efficacy in %) (Pharbitis purpurea [3]; application rate 80 g/ha): 100%
- Setaria viridis (Efficacy in %) (Setaria viridis [4]; application rate 20 g/ha): 100%
- Alopecurus myosuroides (Efficacy in %) (Alopecurus myosuroides [5]): 90%
- Amaranthus retroflexus (Efficacy in %) (Amaranthus retroflexus [6]): 100%
- Polygonum convolvulus (Efficacy in %) (Polygonum convolvulus [7]; application rate 80 g/ha): 100%
- Matricaria inodora (Efficacy in %) (Matricaria inodora [8]; application rate 80 g/ha): 100%
- Veronica persica (Efficacy in %) (Veronica persica [9]): 100%
- Stellaria media (Efficacy in %) (Stellaria media [10]): 100%
- Abutilon theophrasti (Efficacy in %) (Abutilon theophrasti [11]): 100%
- Echinochloa crus-galli (Efficacy in %) (Echinochloa crus-galli [12]): 100%
- Pharbitis purpurea (Efficacy in %) (Pharbitis purpurea [13]; application rate 320 g/ha): 100%
- Hordeum murinum (Efficacy in %) (Hordeum murinum): 100%
- Setaria viridis (Efficacy in %) (Setaria viridis [14]; application rate 320 g/ha): 100%
- Alopecurus myosuroides (Efficacy in %) (Alopecurus myosuroides [15]): 80%
- Avena fatua (Efficacy in %) (Avena fatua): 80%
- Lolium rigidum (Efficacy in %) (Lolium rigidum [16]; application rate 320 g/ha): 100%
- Amaranthus retroflexus (Efficacy in %) (Amaranthus retroflexus [17]): 100%
- Polygonum convolvulus (Efficacy in %) (Polygonum convolvulus [18]; application rate 320 g/ha): 100%
- Veronica persica (Efficacy in %) (Veronica persica [19]; application rate 320 g/ha): 100%
- Viola tricolor (Efficacy in %) (Viola tricolor [20]; application rate 320 g/ha): 100%
- Stellaria media (Efficacy in %) (Stellaria media [21]; application rate 320 g/ha): 100%
- Abutilon theophrasti (Efficacy in %) (Abutilon theophrasti [22]; application rate 320 g/ha): 100%

SMILES: CCOC(=O)CC(C)OC(=O)CSc1cc(-n2c(=O)cc(C(F)(F)F)n(C)c2=O)c(F)cc1Cl (stereo not shown) [I.8-23]
- Oryza sativa (Efficacy in %) (Oryza sativa; application rate 5 g/ha): 20%
- Triticum aestivum (Efficacy in %) (Triticum aestivum): 20%
- Matricaria inodora (Efficacy in %) (Matricaria inodora [1]; application rate 80 g/ha): 100%
- Echinochloa crus-galli (Efficacy in %) (Echinochloa crus-galli [2]): 100%
- Pharbitis purpurea (Efficacy in %) (Pharbitis purpurea [3]; application rate 20 g/ha): 100%
- Setaria viridis (Efficacy in %) (Setaria viridis [4]; application rate 80 g/ha): 100%
- Amaranthus retroflexus (Efficacy in %) (Amaranthus retroflexus [6]): 100%
- Polygonum convolvulus (Efficacy in %) (Polygonum convolvulus [7]; application rate 20 g/ha): 100%
- Matricaria inodora (Efficacy in %) (Matricaria inodora [8]; application rate 20 g/ha): 100%
- Veronica persica (Efficacy in %) (Veronica persica [9]): 100%
- Viola tricolor (Efficacy in %) (Viola tricolor [23]): 100%
- Stellaria media (Efficacy in %) (Stellaria media [10]): 100%
- Abutilon theophrasti (Efficacy in %) (Abutilon theophrasti [11]): 100%
- Echinochloa crus-galli (Efficacy in %) (Echinochloa crus-galli [12]): 100%
- Pharbitis purpurea (Efficacy in %) (Pharbitis purpurea [13]; application rate 320 g/ha): 100%
- Hordeum murinum (Efficacy in %) (Hordeum murinum): 80%
- Setaria viridis (Efficacy in %) (Setaria viridis [14]; application rate 320 g/ha): 100%
- Lolium rigidum (Efficacy in %) (Lolium rigidum [16]; application rate 320 g/ha): 90%
- Amaranthus retroflexus (Efficacy in %) (Amaranthus retroflexus [17]): 100%
- Cyperus esculentus (Efficacy in %) (Cyperus esculentus): 90%
- Polygonum convolvulus (Efficacy in %) (Polygonum convolvulus [18]; application rate 320 g/ha): 100%
- Veronica persica (Efficacy in %) (Veronica persica [19]; application rate 320 g/ha): 100%
- Viola tricolor (Efficacy in %) (Viola tricolor [20]; application rate 320 g/ha): 100%
- Stellaria media (Efficacy in %) (Stellaria media [21]; application rate 80 g/ha): 100%
- Abutilon theophrasti (Efficacy in %) (Abutilon theophrasti [22]; application rate 320 g/ha): 100%

SMILES: CCOC(=O)CC(C)OC(=O)C(C)Sc1cc(-n2c(=O)cc(C(F)(F)F)n(C)c2=O)c(F)cc1Cl (stereo not shown) [I.1-23]
- Triticum aestivum (Efficacy in %) (Triticum aestivum): 20%
- Matricaria inodora (Efficacy in %) (Matricaria inodora [1]; application rate 800 g/ha): 100%
- Echinochloa crus-galli (Efficacy in %) (Echinochloa crus-galli [2]): 100%
- Pharbitis purpurea (Efficacy in %) (Pharbitis purpurea [3]; application rate 80 g/ha): 100%
- Setaria viridis (Efficacy in %) (Setaria viridis [4]; application rate 80 g/ha): 100%
- Alopecurus myosuroides (Efficacy in %) (Alopecurus myosuroides [5]): 90%
- Lolium rigidum (Efficacy in %) (Lolium rigidum [24]): 90%
- Amaranthus retroflexus (Efficacy in %) (Amaranthus retroflexus [6]): 100%
- Polygonum convolvulus (Efficacy in %) (Polygonum convolvulus [7]; application rate 80 g/ha): 100%
- Matricaria inodora (Efficacy in %) (Matricaria inodora [8]; application rate 80 g/ha): 100%
- Veronica persica (Efficacy in %) (Veronica persica [9]): 100%
- Viola tricolor (Efficacy in %) (Viola tricolor [23]): 100%
- Stellaria media (Efficacy in %) (Stellaria media [10]): 100%
- Abutilon theophrasti (Efficacy in %) (Abutilon theophrasti [11]): 100%
- Echinochloa crus-galli (Efficacy in %) (Echinochloa crus-galli [12]): 100%
- Pharbitis purpurea (Efficacy in %) (Pharbitis purpurea [13]; application rate 80 g/ha): 100%
- Hordeum murinum (Efficacy in %) (Hordeum murinum): 100%
- Setaria viridis (Efficacy in %) (Setaria viridis [14]; application rate 80 g/ha): 100%
- Alopecurus myosuroides (Efficacy in %) (Alopecurus myosuroides [15]): 100%
- Avena fatua (Efficacy in %) (Avena fatua): 100%
- Lolium rigidum (Efficacy in %) (Lolium rigidum [16]; application rate 80 g/ha): 100%
- Amaranthus retroflexus (Efficacy in %) (Amaranthus retroflexus [17]): 100%
- Polygonum convolvulus (Efficacy in %) (Polygonum convolvulus [18]; application rate 80 g/ha): 100%
- Veronica persica (Efficacy in %) (Veronica persica [19]; application rate 80 g/ha): 100%
- Viola tricolor (Efficacy in %) (Viola tricolor [20]; application rate 80 g/ha): 100%
- Stellaria media (Efficacy in %) (Stellaria media [21]; application rate 80 g/ha): 100%
- Abutilon theophrasti (Efficacy in %) (Abutilon theophrasti [22]; application rate 80 g/ha): 100%

SMILES: COC(=O)C(C)(C)OC(=O)C(C)Sc1cc(-n2c(=O)cc(C(F)(F)F)n(C)c2=O)c(F)cc1Cl (stereo not shown) [I.1-132]
- Zea mays (Efficacy in %) (Zea mays; application rate 20 g/ha): 20%
- Oryza sativa (Efficacy in %) (Oryza sativa; application rate 80 g/ha): 20%
- Triticum aestivum (Efficacy in %) (Triticum aestivum): 10%
- Matricaria inodora (Efficacy in %) (Matricaria inodora [1]; application rate 320 g/ha): 100%
- Echinochloa crus-galli (Efficacy in %) (Echinochloa crus-galli [2]): 100%
- Pharbitis purpurea (Efficacy in %) (Pharbitis purpurea [3]; application rate 80 g/ha): 100%
- Setaria viridis (Efficacy in %) (Setaria viridis [4]; application rate 80 g/ha): 100%
- Alopecurus myosuroides (Efficacy in %) (Alopecurus myosuroides [5]): 80%
- Amaranthus retroflexus (Efficacy in %) (Amaranthus retroflexus [6]): 100%
- Polygonum convolvulus (Efficacy in %) (Polygonum convolvulus [7]; application rate 80 g/ha): 100%
- Matricaria inodora (Efficacy in %) (Matricaria inodora [8]; application rate 80 g/ha): 90%
- Veronica persica (Efficacy in %) (Veronica persica [9]): 100%
- Stellaria media (Efficacy in %) (Stellaria media [10]): 100%
- Abutilon theophrasti (Efficacy in %) (Abutilon theophrasti [11]): 100%
- Echinochloa crus-galli (Efficacy in %) (Echinochloa crus-galli [12]): 100%
- Pharbitis purpurea (Efficacy in %) (Pharbitis purpurea [13]; application rate 320 g/ha): 100%
- Hordeum murinum (Efficacy in %) (Hordeum murinum): 80%
- Setaria viridis (Efficacy in %) (Setaria viridis [14]; application rate 320 g/ha): 100%
- Alopecurus myosuroides (Efficacy in %) (Alopecurus myosuroides [15]): 100%
- Avena fatua (Efficacy in %) (Avena fatua): 90%
- Lolium rigidum (Efficacy in %) (Lolium rigidum [16]; application rate 320 g/ha): 100%
- Amaranthus retroflexus (Efficacy in %) (Amaranthus retroflexus [17]): 100%
- Polygonum convolvulus (Efficacy in %) (Polygonum convolvulus [18]; application rate 320 g/ha): 100%
- Veronica persica (Efficacy in %) (Veronica persica [19]; application rate 320 g/ha): 100%
- Viola tricolor (Efficacy in %) (Viola tricolor [20]; application rate 320 g/ha): 100%
- Stellaria media (Efficacy in %) (Stellaria media [21]; application rate 320 g/ha): 100%
- Abutilon theophrasti (Efficacy in %) (Abutilon theophrasti [22]; application rate 320 g/ha): 100%
